These results are taken from patent publication US9255132B2, “Angiopoietin derived peptides” (Compugen Ltd., priority 2008, dated 2016).

One experiment addresses T1, recombinant human Ang1 (Homo sapiens, UniProt Q15389).
T1 construct: purchased R&D Systems 923-AN-025/CF
T1 sequence (Q15389 16-498): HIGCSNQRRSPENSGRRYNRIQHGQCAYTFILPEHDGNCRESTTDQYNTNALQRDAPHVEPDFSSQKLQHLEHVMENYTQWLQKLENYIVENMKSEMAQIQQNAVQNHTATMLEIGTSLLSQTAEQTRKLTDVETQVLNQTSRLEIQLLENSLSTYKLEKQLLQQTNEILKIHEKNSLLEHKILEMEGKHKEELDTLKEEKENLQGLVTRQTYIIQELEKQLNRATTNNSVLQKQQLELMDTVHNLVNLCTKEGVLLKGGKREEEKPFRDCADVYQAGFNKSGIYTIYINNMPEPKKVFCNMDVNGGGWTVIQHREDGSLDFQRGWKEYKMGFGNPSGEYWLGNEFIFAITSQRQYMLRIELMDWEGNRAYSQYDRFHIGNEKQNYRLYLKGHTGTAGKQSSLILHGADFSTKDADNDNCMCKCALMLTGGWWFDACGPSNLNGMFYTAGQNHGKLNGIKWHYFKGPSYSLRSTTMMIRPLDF
As to the kind of experiment: BIACORE (SPR) binding of peptides to immobilized recombinant Ang1. Particulars: CM5 chip, 10-50 μM peptide. The source says: (§1) The capability of CGEN-H2 [SEQ ID NO: 1], CGEN-H3 [SEQ ID NO: 2], CGEN-A8 [SEQ ID NO: 3], CGEN-H7 [SEQ ID NO: 4], CGEN-G4 [SEQ ID NO: 5], CGEN-G6 [SEQ ID NO: 6], CGEN-F9 [SEQ ID NO: 7], CGEN-F12 [SEQ ID NO: 8], CGEN-C6-30 [SEQ ID NO: 9], CGEN-All [SEQ ID NO: 10], and CGEN-G2 [SEQ ID NO: 11] to specifically bind to recombinant Ang1, Ang2, and Ang4 was investigated using the BIACORE technology, measuring protein-protein interaction and binding affinity (Wendler et al 2005, Anal Bioanal Chem, 381: 1056-1064). The technology is based on surface plasmon resonance (SPR), an optical phenomenon that enables detection of unlabeled interactants in real time. The SPR-based biosensors can be used in determination of active concentration, screening and characterization in terms of both affinity and kinetics.
(§2) Peptide-protein binding was analyzed using surface plasmon resonance. Analysis of the to interaction between CGEN-H2 [SEQ ID NO: 1], CGEN-H3 [SEQ ID NO: 2], CGEN-A8 [SEQ ID NO: 3], CGEN-H7 [SEQ ID NO: 4], CGEN-G4 [SEQ ID NO: 5], CGEN-G6 [SEQ ID NO: 6], CGEN-F9 [SEQ ID NO: 7], CGEN-F12 [SEQ ID NO: 8], CGEN-C6 [SEQ ID NO: 9], CGEN-A11 [SEQ ID NO: 10], and CGEN-G2 [SEQ ID NO: 11] peptides and recombinant human Ang1 carrier-free (R&D Systems, Cat#923-AN-025/CF, Lot#FHW1507031), human Ang2 carrier-free (R&D Systems, Cat#623-AN-025/CF, Lot#BNO0457121), and human Ang4 carrier-free (R&D Systems, Cat#964-AN-025/CF, Lot#ELM025121) was conducted using the BIAcore biosensor (Pharmacia Biosensor, Uppsala, Sweden). The recombinant Ang1, Ang2, and Ang4 were immobilized directly to a CM5 sensor chip. Solutions containing 10-50 μM of CGEN-H2 [SEQ ID NO: 1], CGEN-H3 [SEQ ID NO: 2], CGEN-A8 [SEQ ID NO: 3], CGEN-H7 [SEQ ID NO: 4], CGEN-G4 [SEQ ID NO: 5], CGEN-G6 [SEQ ID NO: 6], CGEN-F9 [SEQ ID NO: 7], CGEN-F12 [SEQ ID NO: 8], CGEN-C6 [SEQ ID NO: 9], CGEN-A11 [SEQ ID NO: 10], and CGEN-G2 [SEQ ID NO: 11] peptides were injected into the sample chamber of the BIACORE device at a rate of […] and the interaction was monitored using surface plasmon resonance.
(§3) Solutions containing different concentrations of CGEN-G6 [SEQ ID NO: 6], CGEN-F9 [SEQ ID NO: 7], CGEN-F12 [SEQ ID NO: 8], CGEN-A11 [SEQ ID NO: 10], and CGEN-G2 [SEQ ID NO: 11] peptides (as indicated in Table 2) were injected into the sample chamber of the BIACORE device at a rate of […] and the interaction was monitored using surface plasmon resonance. As a background, the solutions were also injected onto an empty flow cell with no immobilized ligand and the in binding levels achieved were subtracted. Data was analyzed using BIAevaluation software. The affinity constant of the interaction between CGEN-G6 [SEQ ID NO: 6], CGEN-F9 [SEQ ID NO: 7], CGEN-F12 [SEQ ID NO: 8], CGEN-C6 [SEQ ID NO: 9], CGEN-A11 [SEQ ID NO: 10], and CGEN-G2 [SEQ ID NO: 11] and Ang1, Ang2, or Ang4 was determined by direct kinetic analysis. The 1:1 Langmuir binding model was used to fit kinetic data.
(§4) Table 2 summarizes results of analysis of CGEN-G6 [SEQ ID NO: 6], CGEN-F9 [SEQ ID NO: 7], CGEN-F12 [SEQ ID NO: 8], CGEN-A11 [SEQ ID NO: 10], and CGEN-G2 [SEQ ID NO: 11] interaction with Ang1, Ang2, or Ang4. Kinetic measurements were done at the indicated concentration range, and they are presented as KD (M). CGEN-F12 [SEQ ID NO: 8] bound to Ang1 and Ang4 with high affinity. The specificity of this binding is not clear.
(In SPR one partner is held on a chip, and binding of the other changes the refractive index at the surface.)

A further experiment deals with T2, human Ang4 (Homo sapiens, UniProt Q9Y264).
T2 construct: purchased R&D Systems 964-AN-025/CF
T2 sequence (Q9Y264 25-503): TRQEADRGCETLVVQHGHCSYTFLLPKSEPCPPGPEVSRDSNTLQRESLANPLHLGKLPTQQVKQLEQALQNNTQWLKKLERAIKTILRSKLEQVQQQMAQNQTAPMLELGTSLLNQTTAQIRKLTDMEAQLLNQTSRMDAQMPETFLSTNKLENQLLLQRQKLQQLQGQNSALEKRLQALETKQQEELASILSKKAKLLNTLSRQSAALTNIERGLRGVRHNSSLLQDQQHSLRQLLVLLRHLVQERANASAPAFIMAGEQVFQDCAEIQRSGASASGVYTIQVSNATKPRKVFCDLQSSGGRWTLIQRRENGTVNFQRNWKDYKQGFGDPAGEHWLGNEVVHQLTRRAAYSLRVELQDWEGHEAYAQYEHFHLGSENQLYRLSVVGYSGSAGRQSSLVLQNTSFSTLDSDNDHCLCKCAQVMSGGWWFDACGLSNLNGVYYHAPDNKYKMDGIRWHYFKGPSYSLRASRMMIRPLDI
As to the kind of experiment: BIACORE (SPR) binding of peptides to immobilized recombinant Ang4. Particulars: CM5 chip, 10-50 μM peptide.
Source text: as §1, §2, §3, §4

Residues, ends and D or L forms follow the SMILES beside them.

`CC(=O)N[C@@H](CCC(=O)O)C(=O)N[C@H](C(=O)N[C@@H](Cc1ccccc1)C(=O)N[C@@H](CC(C)C)C(=O)N[C@@H](CO)C(=O)N[C@H](C(=O)N[C@@H](CC(N)=O)C(=O)N[C@@H](CCCCN)C(=O)N[C@@H](CC(C)C)C(=O)N[C@@H](CCC(=O)O)C(=O)N[C@@H](CC(N)=O)C(=O)N[C@@H](CCC(N)=O)C(N)=O)[C@@H](C)O)[C@@H](C)O` [CGEN-A11, ETFLSTNKLENQ] (Ac-ETFLSTNKLENQ-NH2): the “binding to immobilized Ang1 (in words)” value at recombinant human Ang1 is listed as “capable of binding”. Further, the “binding to immobilized Ang4 (in words)” value on human Ang4 is on record as “capable of binding”.
Regarding `CC[C@H](C)[C@H](NC(=O)[C@H](C)NC(=O)[C@H](CCCNC(=N)N)NC(=O)[C@H](CCC(=O)O)NC(=O)[C@H](CC(C)C)NC(=O)[C@H](CCCCN)NC(=O)[C@H](CCCCN)NC(=O)[C@H](CC(C)C)NC(=O)[C@H](Cc1c[nH]c2ccccc12)NC(=O)[C@H](CCC(N)=O)NC(=O)[C@@H](NC(=O)[C@H](CC(N)=O)NC(=O)[C@H](CC(N)=O)NC(=O)[C@H](CCC(N)=O)NC(=O)[C@H](CC(C)C)NC(=O)[C@H](C)NC(=O)[C@H](CCC(N)=O)NC(=O)[C@H](CCC(=O)O)NC(=O)[C@H](CC(C)C)NC(=O)[C@H](CCC(N)=O)NC(=O)[C@H](CCCCN)NC(=O)[C@@H](NC(=O)[C@H](CCC(N)=O)NC(=O)[C@H](CCC(N)=O)NC(=O)[C@@H](NC(C)=O)[C@@H](C)O)C(C)C)[C@@H](C)O)C(=O)N[C@@H](CCCCN)C(=O)N[C@H](C(=O)N[C@H](C(=O)N[C@@H](CC(C)C)C(N)=O)[C@@H](C)CC)[C@@H](C)O` [CGEN-G2] (Ac-TQQVKQLEQALQNNTQWLKKLERAIKTIL-NH2), the “binding to immobilized Ang1 (in words)” value at recombinant human Ang1 is “capable of binding”. Also, on human Ang4, the “binding to immobilized Ang4 (in words)” value was “capable of binding”.
Regarding `CSCC[C@H](NC(=O)[C@H](CC(C)C)NC(=O)[C@H](CC(=O)O)NC(C)=O)C(=O)N[C@@H](CCC(=O)O)C(=O)N[C@H](C(=O)N[C@H](C(=O)N[C@@H](CC(N)=O)C(=O)N[C@@H](CC(N)=O)C(=O)N[C@@H](CC(C)C)C(=O)N[C@@H](CC(C)C)C(=O)N[C@H](C(=O)N[C@@H](CCSC)C(=O)N[C@@H](CCSC)C(=O)N[C@@H](CO)C(=O)N[C@H](C(=O)N[C@@H](CO)C(=O)N[C@@H](CC(N)=O)C(=O)N[C@@H](CO)C(=O)N[C@@H](C)C(=O)N[C@@H](CCCCN)C(=O)N[C@@H](CC(=O)O)C(N)=O)[C@@H](C)O)[C@@H](C)O)C(C)C)[C@@H](C)O` [CGEN-G6] (Ac-DLMETVNNLLTMMSTSNSAKD-NH2), the “binding to immobilized Ang1 (in words)” value at recombinant human Ang1 was “capable of binding”. Moreover, the “binding to immobilized Ang4 (in words)” value at human Ang4 is on record as “capable of binding”.
